Experimental data reported in patent US9480259B2, “Pyrazolopyrans having herbicidal and pharmaceutical properties” (BASF SE, priority 2012, dated 2016).

biological target: Arabidopsis thaliana SHMT; test: SHMT activity assay (ED50 SHMT), coupled with N5,N10-CH2-THF dehydrogenase, NADH at 340 nm; format: biochemical; settings: Arabidopsis thaliana SHMT enzyme assay; values given as upper bounds
Summary of the method: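 His-tagged SHMT purified on Ni-NTA. NADH formation followed at 340 nm for 30 min; ED50 from inhibition of initial velocity.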

EC50 [nM]	Structure (SMILES)
< 100	COC(=O)CCS(=O)(=O)N(C)c1cc(C#N)cc(C2(C3CCC3)C(C#N)=C(N)Oc3[nH]nc(C)c32)c1 (stereo not drawn) [Compound 2.723]
< 100	Cc1n[nH]c2c1C(c1cc(C#N)cc(N(C)S(=O)(=O)CC#N)c1)(C1CCC1)C(C#N)=C(N)O2 (stereo not drawn) [Compound 2.724]
< 100	CCOC(=O)CS(=O)(=O)N(C)c1cc(C#N)cc(C2(C(C)C)C(C#N)=C(N)Oc3[nH]nc(C)c32)c1 (stereo not drawn) [Compound 2.725]
< 10	Cc1n[nH]c2c1C(c1cc(Br)cc(N(C)C(=O)Cc3nnn[nH]3)c1)(C1CCC1)C(C#N)=C(N)O2 (stereo not drawn) [Compound 2.730]
< 100	Cc1n[nH]c2c1C(c1cc(C#N)cc(N(C)S(=O)(=O)CC(=O)O)c1)(C1CCC1)C(C#N)=C(N)O2 (stereo not drawn) [Compound 2.731]
< 100	Cc1n[nH]c2c1C(c1cc(C#N)cc(NS(=O)(=O)C(F)(F)F)c1)(C1CCC1)C(C#N)=C(N)O2 (stereo not drawn) [Compound 2.733]
< 10000	Cc1n[nH]c2c1C(c1cc(Cc3nnn[nH]3)cc(-c3nnn[nH]3)c1)(C(C)C)C(C#N)=C(N)O2 (stereo not drawn) [Compound 2.735]
< 1000	Cc1n[nH]c2c1C(c1ccc(CCC#N)c(-c3nnn[nH]3)c1)(C(C)C)C(C#N)=C(N)O2 (stereo not drawn) [Compound 2.736]
< 100	Cc1n[nH]c2c1C(c1cc(C#N)cc(Cc3nnn[nH]3)c1)(C(C)C)C(C#N)=C(N)O2 (stereo not drawn) [Compound 2.738]

The remaining lines, values behind:

Structure (SMILES)	EC50 [nM]
COC(=O)CCS(=O)(=O)N(C)c1cc(C#N)cc(C2(C(C)C)C(C#N)=C(N)Oc3[nH]nc(C)c32)c1 (stereo not drawn) [Compound 2.726]	< 100
Cc1n[nH]c2c1C(c1cc(C#N)cc(N(C)C(=O)CCCc3nnn[nH]3)c1)(C1CCC1)C(C#N)=C(N)O2 (stereo not drawn) [Compound 2.727]	< 100
Cc1n[nH]c2c1C(c1cc(C#N)cc(N(C)S(=O)(=O)CC(=O)O)c1)(C(C)C)C(C#N)=C(N)O2 (stereo not drawn) [Compound 2.732]	< 100
Cc1n[nH]c2c1C(c1ccc(CCc3nnn[nH]3)c(C#N)c1)(C(C)C)C(C#N)=C(N)O2 (stereo not drawn) [Compound 2.734]	< 100

same assay, conditions: inhibition of initial velocity of Arabidopsis thaliana SHMT

EC50 [nM]	Structure (SMILES)
< 10000	CCC1(c2cc(F)cc(F)c2F)C(C#N)=C(N)Oc2[nH]nc(C)c21 (stereo not drawn) [Compound 3.4]
< 10	Cc1n[nH]c2c1C(c1ccc(-c3cccs3)s1)(C1CCC1)C(C#N)=C(N)O2 (stereo not drawn) [Compound 4.1]
< 10	Cc1n[nH]c2c1C(c1cc(Cl)c3c(c1)OCCO3)(C1CCC1)C(C#N)=C(N)O2 (stereo not drawn) [Compound 4.5]
< 10	Cc1n[nH]c2c1C(c1cc3cc(Cl)ccc3o1)(C1CCC1)C(C#N)=C(N)O2 (stereo not drawn) [Compound 4.7]
< 10	Cc1n[nH]c2c1C(c1ccc(-c3ccc(F)cc3)s1)(C1CCC1)C(C#N)=C(N)O2 (stereo not drawn) [Compound 4.8]
< 10	Cc1n[nH]c2c1C(c1cc3cc(Cl)ccc3s1)(C1CCC1)C(C#N)=C(N)O2 (stereo not drawn) [Compound 4.9]
< 10	Cc1n[nH]c2c1C(c1ccc(-c3ccccc3)s1)(C1CCC1)C(C#N)=C(N)O2 (stereo not drawn) [Compound 4.10]
< 10	Cc1n[nH]c2c1C(c1cc(Cl)c3c(c1)CCO3)(C1CCC1)C(C#N)=C(N)O2 (stereo not drawn) [Compound 4.12]
< 10	Cc1n[nH]c2c1C(c1ccc(-c3cccc(F)c3)s1)(C1CCC1)C(C#N)=C(N)O2 (stereo not drawn) [Compound 4.14]
< 10	Cc1n[nH]c2c1C(c1cc(-c3cccs3)cs1)(C1CCC1)C(C#N)=C(N)O2 (stereo not drawn) [Compound 4.16]
< 10	Cc1n[nH]c2c1C(c1ccc3c(c1)C(F)(F)CCO3)(C1CCC1)C(C#N)=C(N)O2 (stereo not drawn) [Compound 4.18]
< 10	Cc1n[nH]c2c1C(c1ccc(-c3ccc(Cl)cc3)s1)(C1CCC1)C(C#N)=C(N)O2 (stereo not drawn) [Compound 4.20]
< 10	Cc1n[nH]c2c1C(c1cc3cc(C(F)(F)F)ccc3s1)(C1CCC1)C(C#N)=C(N)O2 (stereo not drawn) [Compound 4.22]
< 10	Cc1n[nH]c2c1C(c1cc(F)c3c(c1)C=CC(C)(C)O3)(C1CCC1)C(C#N)=C(N)O2 (stereo not drawn) [Compound 4.23]
< 10	Cc1n[nH]c2c1C(c1ccc3c(c1)OC(F)(F)O3)(C1CCC1)C(C#N)=C(N)O2 (stereo not drawn) [Compound 4.25]
< 10	Cc1cccc(-c2ccc(C3(C4CCC4)C(C#N)=C(N)Oc4[nH]nc(C)c43)s2)c1 (stereo not drawn) [Compound 4.29]
< 10	Cc1n[nH]c2c1C(c1ccc3c(c1)CCO3)(C1CCC1)C(C#N)=C(N)O2 (stereo not drawn) [Compound 4.32]

EC50 [nM]	Structure (SMILES)
< 10	Cc1n[nH]c2c1C(c1cc(-c3ccsc3)cs1)(C1CCC1)C(C#N)=C(N)O2 (stereo not drawn) [Compound 4.33]
< 10	Cc1n[nH]c2c1C(c1ccc(-c3ccccc3C(F)(F)F)s1)(C1CCC1)C(C#N)=C(N)O2 (stereo not drawn) [Compound 4.34]
< 10	Cc1n[nH]c2c1C(c1cncc(C(F)(F)F)c1)(C1CCC1)C(C#N)=C(N)O2 (stereo not drawn) [Compound 4.35]
< 10	Cc1n[nH]c2c1C(c1nc3ccc(Cl)cc3o1)(C1CCC1)C(C#N)=C(N)O2 (stereo not drawn) [Compound 4.37]
< 10	Cc1n[nH]c2c1C(c1cc(-c3ccco3)cs1)(C1CCC1)C(C#N)=C(N)O2 (stereo not drawn) [Compound 4.41]
< 10	Cc1n[nH]c2c1C(c1ccc3c(c1)nnn3C(C)C)(C1CCC1)C(C#N)=C(N)O2 (stereo not drawn) [Compound 4.42]
< 10	Cc1n[nH]c2c1C(c1nc3ccccc3o1)(C1CCC1)C(C#N)=C(N)O2 (stereo not drawn) [Compound 4.46]
< 100	Cc1n[nH]c2c1C(c1ccc3[nH]c(C(F)(F)F)nc3c1)(C1CCC1)C(C#N)=C(N)O2 (stereo not drawn) [Compound 4.48]
< 100	Cc1n[nH]c2c1C(c1cc3ccccc3o1)(C1CCC1)C(C#N)=C(N)O2 (stereo not drawn) [Compound 4.52]
< 100	N#CC1=C(N)Oc2[nH]ncc2C1(c1cc2ccccc2o1)C1CCC1 (stereo not drawn) [Compound 4.54]
< 100	Cc1n[nH]c2c1C(c1ccc(-c3cccc(F)c3)s1)(C1CC1)C(C#N)=C(N)O2 (stereo not drawn) [Compound 4.56]
< 100	Cc1n[nH]c2c1C(c1cc(-c3cccc(F)c3)cs1)(C1CC1)C(C#N)=C(N)O2 (stereo not drawn) [Compound 4.60]
< 1000	Cc1n[nH]c2c1C(c1cc(-c3ccccc3)cs1)(C1CC1)C(C#N)=C(N)O2 (stereo not drawn) [Compound 4.64]
< 1000	Cc1n[nH]c2c1C(C(C)C)(C(F)(F)c1cccc(Cl)c1)C(C#N)=C(N)O2 (stereo not drawn) [Compound 4.67]
< 1000	Cc1n[nH]c2c1C(c1cc(-c3cccc(C(F)(F)F)c3)cs1)(C1CCC1)C(C#N)=C(N)O2 (stereo not drawn) [Compound 4.68]
< 1000	CCC1(c2ccc3c(c2)C(C)(C)C(C)C3(C)C)C(C#N)=C(N)Oc2[nH]nc(C)c21 (stereo not drawn) [Compound 4.71]

The remaining lines, values behind:

Structure (SMILES)	EC50 [nM]
CCC1(c2cc(F)c(F)cc2F)C(C#N)=C(N)Oc2[nH]nc(C)c21 (stereo not drawn) [Compound 3.3]	< 10000
Cc1n[nH]c2c1C(c1ccc(-c3ccco3)s1)(C1CCC1)C(C#N)=C(N)O2 (stereo not drawn) [Compound 4.3]	< 10
Cc1n[nH]c2c1C(c1ccc(-c3cccc(Cl)c3)s1)(C1CCC1)C(C#N)=C(N)O2 (stereo not drawn) [Compound 4.6]	< 10
Cc1n[nH]c2c1C(c1cncc(Cl)c1)(C1CCC1)C(C#N)=C(N)O2 (stereo not drawn) [Compound 4.11]	< 10
Cc1ccc(-c2ccc(C3(C4CCC4)C(C#N)=C(N)Oc4[nH]nc(C)c43)s2)cc1 (stereo not drawn) [Compound 4.13]	< 10
Cc1n[nH]c2c1C(c1cc(Cl)c3c(c1)OCCO3)(C(C)C)C(C#N)=C(N)O2 (stereo not drawn) [Compound 4.15]	< 10
Cc1n[nH]c2c1C(c1ccc(-c3ccccc3F)s1)(C1CCC1)C(C#N)=C(N)O2 (stereo not drawn) [Compound 4.17]	< 10
Cc1ccc2cc(C3(C4CCC4)C(C#N)=C(N)Oc4[nH]nc(C)c43)cc(C(F)(F)F)c2n1 (stereo not drawn) [Compound 4.19]	< 10
Cc1n[nH]c2c1C(c1cc(-c3ccccc3)cs1)(C1CCC1)C(C#N)=C(N)O2 (stereo not drawn) [Compound 4.24]	< 10
Cc1n[nH]c2c1C(c1ccc(-c3ccc(C(F)(F)F)cc3)s1)(C1CCC1)C(C#N)=C(N)O2 (stereo not drawn) [Compound 4.26]	< 10
COC(=O)c1ccc(C2(C3CCC3)C(C#N)=C(N)Oc3[nH]nc(C)c32)s1 (stereo not drawn) [Compound 4.27]	< 10
Cc1n[nH]c2c1C(c1cc3ccccc3s1)(C1CCC1)C(C#N)=C(N)O2 (stereo not drawn) [Compound 4.28]	< 10
COC(=O)c1csc(C2(C3CCC3)C(C#N)=C(N)Oc3[nH]nc(C)c32)c1 (stereo not drawn) [Compound 4.30]	< 10
CC1(C)C=Cc2cc(C3(C4CCC4)C(C#N)=C(N)Oc4[nH]ncc43)cc(F)c2O1 (stereo not drawn) [Compound 4.31]	< 10
COc1ccc2cc(C3(C4CCC4)C(C#N)=C(N)Oc4[nH]nc(C)c43)ccc2c1 (stereo not drawn) [Compound 4.36]	< 10
Cc1n[nH]c2c1C(c1cc3c(C(F)(F)F)cccc3s1)(C1CCC1)C(C#N)=C(N)O2 (stereo not drawn) [Compound 4.38]	< 10
Cc1n[nH]c2c1C(c1cc(C(F)(F)F)c3nc(C(=O)O)ccc3c1)(C1CCC1)C(C#N)=C(N)O2 (stereo not drawn) [Compound 4.39]	< 10
Cc1n[nH]c2c1C(c1ccc(-c3cccc(C(F)(F)F)c3)s1)(C1CCC1)C(C#N)=C(N)O2 (stereo not drawn) [Compound 4.43]	< 10
Cc1n[nH]c2c1C(c1ccc3c(c1)OCO3)(C1CCC1)C(C#N)=C(N)O2 (stereo not drawn) [Compound 4.44]	< 10
Cc1n[nH]c2c1C(c1nc3c(Cl)cccc3s1)(C1CCC1)C(C#N)=C(N)O2 (stereo not drawn) [Compound 4.45]	< 10
Cc1n[nH]c2c1C(c1cc(-c3cccc(F)c3)cs1)(C1CCC1)C(C#N)=C(N)O2 (stereo not drawn) [Compound 4.47]	< 100
Cc1n[nH]c2c1C(c1ccc3c(c1)nnn3C)(C1CCC1)C(C#N)=C(N)O2 (stereo not drawn) [Compound 4.49]	< 100
COc1c(F)cc(-c2ccc(C3(C4CCC4)C(C#N)=C(N)Oc4[nH]nc(C)c43)s2)cc1F (stereo not drawn) [Compound 4.50]	< 100
Cc1n[nH]c2c1C(c1ccc(-c3cccc(C(F)(F)F)c3)s1)(C1CC1)C(C#N)=C(N)O2 (stereo not drawn) [Compound 4.53]	< 100
Cc1n[nH]c2c1C(c1ccc(-c3ccccc3)s1)(C1CC1)C(C#N)=C(N)O2 (stereo not drawn) [Compound 4.55]	< 100
CCC1(c2cc(-c3cccs3)cs2)C(C#N)=C(N)Oc2[nH]nc(C)c21 (stereo not drawn) [Compound 4.61]	< 100
Cc1n[nH]c2c1C(c1cc3ccc(Cl)cc3s1)(C1CCC1)C(C#N)=C(N)O2 (stereo not drawn) [Compound 4.63]	< 1000
Cc1n[nH]c2c1C(c1cc(C(=O)O)cs1)(C1CCC1)C(C#N)=C(N)O2 (stereo not drawn) [Compound 4.66]	< 1000
CCC1(c2ccc3c(c2)C(C)(C)CCC3(C)C)C(C#N)=C(N)Oc2[nH]nc(C)c21 (stereo not drawn) [Compound 4.69]	< 1000
